Laboratory results published in patent US20230167088A1, “1-PYRAZINYLPYRAZOLYL-3-OXYALKYL ACIDS AND THEIR DERIVATIVES, AND THEIR USE FOR CONTROL OF UNDESIRED PLANT GROWTH” (BAYER AKTIENGESELLSCHAFT, priority 2020, published 2023).

How the values were obtained:
STEME [1] = experiment: Herbicidal post-emergence action 1a (greenhouse pots, visual rating); format: in vivo, Stellaria media; conditions: rated visually about 3 weeks after treatment, 100% = plants have died, 0% = like control plants
In short: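 Weeds and crops sown in sandy loam in greenhouse pots were sprayed post-emergence at the one-leaf stage (2–3 weeks after sowing) with WP or EC formulations plus 0.5% additive at 600 l/ha water, 320 and/or 80 g/ha. About 3 weeks later damage was rated visually against untreated controls (0% = no effect, 100% = dead).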

HORMU [2] = experiment: as above; format: in vivo, Hordeum murinum; conditions: rated visually about 3 weeks after treatment, 100% = plants have died, 0% = like control plants
Method: [table] a) Seeds of monocotyledonous and dicotyledonous weeds and crop plants are placed in sandy loam in plastic or organic plant pots, covered with soil and cultivated in a greenhouse under controlled growth conditions. 2 to 3 weeks after sowing, the test plants are treated at the one-leaf stage. The compounds of the invention, formulated in the form of wettable powders (WP) or as emulsion concentrates (EC), are then sprayed onto the green parts of the plants as aqueous suspension or emulsion with addition of 0.5% additive at a water application rate of 600 1/ha (converted). After the test plants have been kept in the greenhouse under optimum growth conditions for about 3 weeks, the activity of the preparations is rated visually in comparison to untreated controls. For example, 100% activity=the plants have died, 0% activity=like control plants. Tables A1 to A15 below show the effects of selected compounds of the general formula (I) according to Tables 1 and 2 on various harmful plants and an application rate corresponding to 320 g/ha and/or 80 g/ha, which were obtained by the experimental procedure mentioned above.

PHBPU = experiment: Herbicidal pre-emergence action 2a (greenhouse pots, visual scoring); format: in vivo, Pharbitis purpurea; conditions: dosage 320 g/ha, visual scoring after about 3 weeks vs untreated controls
In short: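 Visual scoring after roughly 3 weeks, as percent effect relative to untreated pots (0% = like control, 100% = dead). Seeds were covered with soil, then the surface received aqueous WP/EC suspension or emulsion (0.5% additive, 600 l/ha) at 320 and/or 80 g/ha.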

ABUTH [3] = experiment: Herbicidal post-emergence action 1b (twin sowing, 1280 g/ha); format: in vivo, Abutilon theophrasti; conditions: dosage 1280 g/ha, visual rating about 3 weeks after treatment
In short: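 Twin-sown weeds in sandy loam, greenhouse-grown 2–3 weeks, sprayed post-emergence at one-leaf stage with WP/EC formulations plus 0.5% additive at 600 L/ha water. Damage rated visually about 3 weeks later versus untreated controls (100% = plants dead, 0% = like control).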

HORMU [4] = experiment: Herbicidal pre-emergence action 2a (greenhouse pots, visual scoring); format: in vivo, Hordeum murinum; conditions: dosage 320 g/ha, visual scoring after about 3 weeks vs untreated controls
Source text: (§1) [table] a) Seeds of monocotyledonous and dicotyledonous weed plants and crop plants are placed in plastic or organic plant pots and covered with soil. The compounds of the invention, formulated in the form of wettable powders (WP) or as emulsion concentrates (EC), are then applied onto the surface of the covering soil as aqueous suspension or emulsion with addition of 0.5% additive at a water application rate of 600 1/ha (converted). After the treatment, the pots are placed in a greenhouse and kept under good growth conditions for the trial plants. After about 3 weeks, the effect of the preparations is scored visually in comparison with untreated controls as percentages. For example, 100% activity=the plants have died, 0% activity=like control plants. Tables B1 to B15 below show the effects of selected compounds of the general formula (I) according to Tables 1 and 2 on various harmful plants and an application rate corresponding to 320 g/ha and/or 80 g/ha, which were obtained by the experimental procedure mentioned above.

STEME [5] = experiment: as above; format: in vivo, Stellaria media; conditions: dosage 320 g/ha, visual scoring after about 3 weeks vs untreated controls
Source text: as §1

ABUTH [6] = experiment: as above; format: in vivo, Abutilon theophrasti; conditions: dosage 320 g/ha, visual scoring after about 3 weeks vs untreated controls
Source text: as §1

DIGSA = experiment: Herbicidal pre-emergence action 2b (doubly sown, 1280 g/ha); format: in vivo, Digitaria sanguinalis; conditions: doubly sown pots, dosage 1280 g/ha, visual scoring after about 3 weeks
In short: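 Pots of sandy loam doubly sown with one monocot and one dicot weed species, covered, then soil surface sprayed pre-emergence with WP or EC formulations plus 0.5% additive at 600 l/ha water. Greenhouse-grown about 3 weeks; activity scored visually as % versus untreated controls (100% = dead).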

SMILES	Post-emergence action against STEME in % (STEME [1]; Dosage 320 g/ha) [%]	Pre-emergence action against PHBPU in % (PHBPU) [%]	Post-emergence action at 1280 g/ha against ABUTH in % (ABUTH [3]) [%]	Pre-emergence action at 1280 g/ha against DIGSA in % (DIGSA) [%]	further results
COC(=O)C(C)Oc1nn(-c2cnccn2)c(-c2ccnc(F)c2)c1Cl (racemic) [Example I-05]	80	80	90		Post-emergence action against HORMU in % (HORMU [2]; Dosage 320 g/ha): 90%; Pre-emergence action against HORMU in % (HORMU [4]): 90%; Pre-emergence action against STEME in % (STEME [5]): 100%
COC(=O)C(C)Oc1nn(-c2cnccn2)c(-c2cncc(F)c2)c1Br (racemic) [Example I-08]	90	90			Post-emergence action against STEME in % (STEME [1]; Dosage 80 g/ha): 90%; Post-emergence action against HORMU in % (HORMU [2]; Dosage 80 g/ha): 80%; Post-emergence action against HORMU in % (HORMU [2]; Dosage 320 g/ha): 90%; Pre-emergence action against HORMU in % (HORMU [4]): 100%; Pre-emergence action against STEME in % (STEME [5]): 100%; Pre-emergence action against ABUTH in % (ABUTH [6]): 80%
COC(=O)C(C)Oc1nn(-c2cnccn2)c(-c2ccnc(F)c2)c1Br (racemic) [Example I-10]	90				Post-emergence action against HORMU in % (HORMU [2]; Dosage 80 g/ha): 80%; Post-emergence action against HORMU in % (HORMU [2]; Dosage 320 g/ha): 80%; Pre-emergence action against HORMU in % (HORMU [4]): 80%
COC(=O)C(C)Oc1nn(-c2cnccn2)c(-c2ccc(F)nc2)c1Br (racemic) [Example I-12]	90				Post-emergence action against STEME in % (STEME [1]; Dosage 80 g/ha): 80%; Post-emergence action against HORMU in % (HORMU [2]; Dosage 80 g/ha): 90%; Post-emergence action against HORMU in % (HORMU [2]; Dosage 320 g/ha): 90%; Pre-emergence action against HORMU in % (HORMU [4]): 90%; Pre-emergence action against STEME in % (STEME [5]): 90%
COC(=O)C(C)Oc1nn(-c2cnccn2)c(-c2ccc(F)c(F)c2)c1Br (racemic) [Example I-16]			90		
CCOC(=O)COc1nn(-c2cnccn2)c(-c2ccccc2)c1Br [Example I-01]	90				Pre-emergence action against STEME in % (STEME [5]): 80%
COC(=O)COc1nn(-c2cnccn2)c(-c2cncc(F)c2)c1Br [Example I-07]	90	90			Post-emergence action against STEME in % (STEME [1]; Dosage 80 g/ha): 90%; Post-emergence action against HORMU in % (HORMU [2]; Dosage 80 g/ha): 80%; Post-emergence action against HORMU in % (HORMU [2]; Dosage 320 g/ha): 90%; Pre-emergence action against HORMU in % (HORMU [4]): 90%; Pre-emergence action against STEME in % (STEME [5]): 100%
COC(=O)COc1nn(-c2cnccn2)c(-c2ccc(F)nc2)c1Br [Example I-11]		90	90	90	
COC(=O)COc1nn(-c2cnccn2)c(-c2ccc(F)c(F)c2)c1Br [Example I-15]		90			
COC(=O)[C@@H](C)Oc1nn(-c2cnccn2)c(-c2cccc(F)c2)c1Br [Example I-20]			90		
COC(=O)[C@@H](C)Oc1nn(-c2cnccn2)c(-c2ccnc(F)c2)c1Br [Example I-34]				100	
COC(=O)[C@@H](C)Oc1nn(-c2cnccn2)c(-c2ccc(F)nc2)c1Cl [Example I-36]			90	100	
C[C@H](Oc1nn(-c2cnccn2)c(-c2cncc(F)c2)c1Br)C(=O)O [Example I-37]			90	100	
COC(=O)[C@@H](C)Oc1nn(-c2cnccn2)c(-c2cncc(F)c2)c1Br [Example I-39]				100	Pre-emergence action against ABUTH in % (ABUTH [6]): 90%
COC(=O)[C@@H](C)Oc1nn(-c2cnccn2)c(-c2cncc(F)c2)c1C#N [Example I-40]				100	
COC(=O)[C@@H](C)Oc1nn(-c2cnccn2)c(-c2ccc(F)c(F)c2)c1Br [Example I-45]			90	100	
COC(=O)[C@@H](C)Oc1nn(-c2cnccn2)c(-c2ccc(F)c(F)c2)c1C#N [Example I-46]			90	100	Pre-emergence action against ABUTH in % (ABUTH [6]): 80%
C[C@@H](Oc1nn(-c2cnccn2)c(-c2cccc(F)c2)c1Br)C(=O)O [Example I-48]		90	90	100	Pre-emergence action against ABUTH in % (ABUTH [6]): 100%
CCOC(=O)COc1nn(-c2cnccn2)c(-c2ccc(F)nc2)c1Br [Example I-52, ethyl {[4-bromo-5-(6-fluoropyridin-3-yl)-1-(pyrazin-2-yl)-1H-pyrazol-3-yl]oxy}acetate]		100		100	
CCOC(=O)COc1nn(-c2cnccn2)c(-c2ccc(F)nc2)c1Cl [Example I-53]			90	100	
